Measured values from patent US9655887B2, “Pharmaceutical composition and the use thereof, and application regime of said pharmaceutical composition for on-demand contraception” (BAYER PHARMA AKTIENGESELLSCHAFT, priority 2013, dated 2017).
pIC50: −log10 of the molar value.

Biological target: EP2 subtype of the human PGE2 receptor (hEP2 receptor) (Homo sapiens, UniProt P43116)
Test: cAMP antagonism test, human prostaglandin E2 (subtype EP2) receptor signal
Type: cell-based
Text: 1. Detection of Antagonism to the Human Prostaglandin E2 (Subtype EP2) Receptor Signal
The binding of PGE2 to the EP2 subtype of the human PGE2 receptor induces the activation of membrane-located adenylate cyclases and leads to the formation of cAMP. In the presence of the phosphodiesterase inhibitor IBMX, the cAMP accumulated owing to this stimulation and released by cell lysis is used in a competitive detection method. In this test, the cAMP present in the lysate competes with a fluorescence-labelled cAMP (cAMP-d2) for binding to an Eu cryptate-labelled anti-cAMP antibody.
In the absence of cellular cAMP, a maximal signal is produced, which is attributable to the binding of this cAMP-d2 molecule to the antibody. After excitation of the […] at 337 nm, there is a fluorescence resonance energy transfer (FRET) to the Eu cryptate molecules of the anti-cAMP antibody (labelled therewith), followed by a long-lasting emission signal at 665 nm (and at […]). Both signals are measured in a suitable measurement instrument with a time delay, i.e. after decay of the background fluorescence. Any increase in the low FRET signal caused by prostaglandin E2 administration (measured as well ratio change=emission665nm/emission620nm*10000) indicates the action of antagonists.
1.2.1. Test for Antagonism (Data Per Well of a 384-Well Plate):
To a test plate with the substance solutions already added (0.05 μl; 100% DMSO, concentration range from 0.8 nM-16.5 nM) were added 4 μl of a cAMP-d2/cell suspension (625000 cells/ml). After a 20-minute preincubation at room temperature (RT), 2 μl of a 3×PGE2 solution (1.5 nM, in PBS-IBMX) were added and incubated in the presence of the agonist for a further 60 mins at RT (volume: […]). Next the reaction was stopped by addition of 2 μl of lysis buffer and incubated for a further 20 mins at RT before the actual measurement (volume: ˜8 μl).

Chain of EP2 subtype of the human PGE2 receptor (hEP2 receptor) (P43116 whole entry): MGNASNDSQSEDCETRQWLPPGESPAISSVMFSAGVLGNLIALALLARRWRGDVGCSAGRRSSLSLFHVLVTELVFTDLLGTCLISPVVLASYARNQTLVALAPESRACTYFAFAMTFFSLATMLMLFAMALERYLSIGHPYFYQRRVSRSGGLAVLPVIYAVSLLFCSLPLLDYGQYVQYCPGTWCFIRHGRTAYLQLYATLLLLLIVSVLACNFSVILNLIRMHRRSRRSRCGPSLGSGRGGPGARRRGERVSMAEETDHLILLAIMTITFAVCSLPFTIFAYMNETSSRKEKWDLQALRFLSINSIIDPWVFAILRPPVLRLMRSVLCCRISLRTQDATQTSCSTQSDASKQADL

| pIC50 | SMILES |
| --- | --- |
| < 7.30 | COCCNC(=O)c1ccc2nn(CC3CN(C(=O)c4ccc(C(F)(F)F)c(F)c4)C3)cc2c1C [Example E92, 2-({1-[3-fluoro-4-(trifluoromethyl)benzoyl]azetidin-3-yl}methyl)-N-(2-methoxyethyl)-4-methyl-2H-indazole-5-carboxamide] |
| < 7.30 | Cc1ccc(C(=O)N2CC(Cn3cc4c(C)c(C(=O)NCCOCC5CC5)ccc4n3)C2)cc1 [Example E104, N-[2-(cyclopropylmethoxy)ethyl]-4-methyl-2-{[1-(4-methylbenzoyl)azetidin-3-yl]-methyl}-2H-indazole-5-carboxamide] |
| < 7.30 | Cc1c(C(=O)NCCOC(F)(F)F)ccc2nn(CC3CCN(C(=O)c4ccc(Cl)cc4)CC3)cc12 [Example E77, 2-{[1-(4-chlorobenzoyl)piperidin-4-yl]methyl}-4-methyl-N-[2-(trifluoromethoxy)ethyl]-2H-indazole-5-carboxamide] |
| < 7.30 | COCCNC(=O)c1ccc2nn(CC3CCN(C(=O)c4ccc(N5CCOCC5)cc4F)CC3)cc2c1C [Example E51, 2-({1-[2-fluoro-4-[morpholin-4-yl)benzoyl]piperidin-4-yl}methyl)-N-(2-methoxyethyl)-4-methyl-2H-indazole-5-carboxamide] |
| < 7.30 | COCCNC(=O)c1ccc2nn(CC3CCN(C(=O)c4ccc(-c5ccccc5)c(C)c4)CC3)cc2c1C [Example E207, N-(2-methoxyethyl)-4-methyl-2-({1-[(2-methylbiphenyl-4-yl)carbonyl]piperidin-4-yl}-methyl)-2H-indazole-5-carboxamide] |
| < 7.30 | Cc1c(C(=O)NCCOCC2CC2)ccc2nn(CC3CCN(C(=O)c4ccc(C(F)(F)F)cc4)CC3)cc12 [Example E62, N-[2-(cyclopropylmethoxy)ethyl]-4-methyl-2-({1-[4-(trifluoromethyl)benzoyl]piperidin-4-yl}methyl)-2H-indazole-5-carboxamide] |
| < 7.30 | Cc1ccc(C(=O)N2CCC(Cn3cc4c(C)c(C(=O)NCCOCC5CC5)ccc4n3)CC2)cc1 [Example E60, N-[2-(cyclopropylmethoxy)ethyl]-4-methyl-2-{[1-(4-methylbenzoyl)piperidin-4-yl]-methyl}-2H-indazole-5-carboxamide] |
| < 7.30 | Cc1c(C(=O)NCCOCC2CC2)ccc2nn(CC3CCN(C(=O)c4ccc(Oc5ccc(F)cc5)cc4)CC3)cc12 [Example E61, N-[2-(cyclopropylmethoxy)ethyl]-2-({1-[4-(4-fluorophenoxy)benzoyl]piperidin-4-yl}-methyl)-4-methyl-2H-indazole-5-carboxamide] |
| < 7.30 | COCCNC(=O)c1ccc2nn(CC3CCN(C(=O)c4ccc(-c5cc(F)cc(F)c5)cc4)CC3)cc2c1C [Example E202, 2-({1-[(3′,5′-difluorobiphenyl-4-yl)carbonyl]piperidin-4-yl}methyl)-N-(2-methoxy-ethyl)-4-methyl-2H-indazole-5-carboxamide] |
| < 7.30 | Cc1ccc(C(=O)N2CCC(Cn3cc4c(C)c(C(=O)NCCOC(C)C)ccc4n3)CC2)cc1 [Example E72, N-(2-isopropoxyethyl)-4-methyl-2-{[1-(4-methylbenzoyl)piperidin-4-yl]methyl}-2H-indazole-5-carboxamide] |
| < 7.30 | COCCNC(=O)c1ccc2nn(CC3CCN(C(=O)c4ccc(N5CCCC5)cc4F)CC3)cc2c1C [Example E39, 2-({1-[2-fluoro-4-(pyrrolidin-1-yl)benzoyl]piperidin-4-yl}methyl)-N-(2-methoxyethyl)-4-methyl-2H-indazole-5-carboxamide] |
| < 7.30 | COCCNC(=O)c1ccc2nn(CC3CCN(C(=O)c4ccc(-c5ccc(Cl)cc5C)cc4)CC3)cc2c1C [Example E184, 2-({1-[(4′-chloro-2′-methylbiphenyl-4-yl)carbonyl]piperidin-4-yl}methyl)-N-(2-methoxyethyl)-4-methyl-2H-indazole-5-carboxamide] |
| < 7.30 | COCCNC(=O)c1ccc2nn(CC3CCN(C(=O)c4ccc(Br)cc4)CC3)cc2c1C [Example E52, 2-{[1-(4-bromobenzoyl)piperidin-4-yl]methyl}-N-(2-methoxyethyl)-4-methyl-2H-indazole-5-carboxamide] |
| < 7.30 | Cc1c(C(=O)NCC(F)(F)F)ccc2nn(CC3CCN(C(=O)c4ccc(-c5ccc(C(F)(F)F)cc5)cc4)CC3)cc12 [Example E138, 4-methyl-N-(2,2,2-trifluoroethyl)-2-[(1-{[4′-(trifluoromethyl)biphenyl-4-yl]carbonyl}-piperidin-4-yl)methyl]-2H-indazole-5-carboxamide] |
| < 7.30 | Cc1c(C(=O)NCCOCC(F)(F)F)ccc2nn(CC3CCN(C(=O)c4ccc(C5CC5)cc4)CC3)cc12 [Example E70, 2-{[1-(4-cyclopropylbenzoyl)piperidin-4-yl]methyl}-4-methyl-N-[2-(2,2,2-trifluoro-ethoxy)ethyl]-2H-indazole-5-carboxamide] |
| < 7.30 | COCCNC(=O)c1ccc2nn(CC3CCN(C(=O)c4ccc(-c5ccc(C(C)(C)C#N)cc5)cc4)CC3)cc2c1C [Example E185, 2-[(1-{[4′-(2-cyanopropan-2-yl)biphenyl-4-yl]carbonyl}piperidin-4-yl)methyl]-N-(2-methoxyethyl)-4-methyl-2H-indazole-5-carboxamide] |
| < 7.30 | COCCNC(=O)c1ccc2nn(CC3CN(C(=O)c4ccc(Cl)cc4F)C3)cc2c1C [Example E91, 2-{[1-(4-chloro-2-fluorobenzoyl)azetidin-3-yl]methyl}-N-(2-methoxyethyl)-4-methyl-2H-indazole-5-carboxamide] |
| < 7.30 | COCCNC(=O)c1ccc2nn(CC3CCN(C(=O)c4ccc(OC(F)(F)F)cc4)CC3)cc2c1C [Example E53, N-(2-methoxyethyl)-4-methyl-2-({1-[4-(trifluoromethoxy)benzoyl]piperidin-4-yl}-methyl)-2H-indazole-5-carboxamide] |
| < 7.30 | Cc1c(C(=O)NCCOCC2CC2)ccc2nn(CC3CCN(C(=O)c4ccc(C5CC5)cc4)CC3)cc12 [Example E64, 2-{[1-(4-cyclopropylbenzoyl)piperidin-4-yl]methyl}-N-[2-(cyclopropylmethoxy)ethyl]-4-methyl-2H-indazole-5-carboxamide] |
| < 7.30 | COCCNC(=O)c1ccc2nn(CC3CCN(C(=O)c4ccc(Oc5ccc(F)cc5F)cc4)CC3)cc2c1C [Example E171, 2-({1-[4-(2,4-difluorophenoxy)benzoyl]piperidin-4-yl}methyl)-N-(2-methoxyethyl)-4-methyl-2H-indazole-5-carboxamide] |
| < 7.30 | COCCNC(=O)c1ccc2nn(CC3CCN(C(=O)c4ccc(-c5ccc(Cl)cn5)cc4)CC3)cc2c1C [Example E181, 2-({1-[4-(5-chloropyridin-2-yl)benzoyl]piperidin-4-yl}methyl)-N-(2-methoxyethyl)-4-methyl-2H-indazole-5-carboxamide] |
| < 7.30 | COCCNC(=O)c1ccc2nn(CC3CCN(C(=O)c4ccc(Oc5ccc(C(F)(F)F)nc5)cc4)CC3)cc2c1C [Example E164, N-(2-methoxyethyl)-4-methyl-2-{[1-(4-{[6-(trifluoromethyl)pyridin-3-yl]oxy}benzoyl)-piperidin-4-yl]methyl}-2H-indazole-5-carboxamide] |
| < 7.30 | COCCNC(=O)c1ccc2nn(CC3CCN(C(=O)c4ccc(-c5ccc(C)c(C)c5)cc4F)CC3)cc2c1C [Example E176, 2-({1-[(3-fluoro-3′,4′-dimethylbiphenyl-4-yl)carbonyl]piperidin-4-yl}methyl)-N-(2-methoxyethyl)-4-methyl-2H-indazole-5-carboxamide] |
| < 7.30 | COCCNC(=O)c1ccc2nn(CC3CCN(C(=O)c4ccc(-c5ccc(OC)cc5C)cc4)CC3)cc2c1C [Example E183, N-(2-methoxyethyl)-2-({1-[(4′-methoxy-2′-methylbiphenyl-4-yl)carbonyl]piperidin-4-yl}methyl)-4-methyl-2H-indazole-5-carboxamide] |
| < 7.30 | COCCNC(=O)c1ccc2nn(CC3CCN(C(=O)c4ccc(Oc5ccc(C(C)(C)C)cc5)cc4)CC3)cc2c1C [Example E15, 2-({1-[4-(4-tert-butylphenoxy)benzoyl]piperidin-4-yl}methyl)-N-(2-methoxyethyl)-4-methyl-2H-indazole-5-carboxamide] |

| SMILES | pIC50 |
| --- | --- |
| Cc1c(C(=O)NCCOC(C)(C)C)ccc2nn(CC3CCN(C(=O)c4ccc(Oc5ccc(F)cc5)cc4)CC3)cc12 [Example E82, N-(2-tert-butoxyethyl)-2-({1-[4-(4-fluorophenoxy)benzoyl]piperidin-4-yl}methyl)-4-methyl-2H-indazole-5-carboxamide] | < 7.30 |
| COCCNC(=O)c1ccc2nn(CC3CCN(C(=O)c4ccc(OC(C)(C)C)cc4)CC3)cc2c1C [Example E2, 2-{[1-(4-tert-butoxybenzoyl)piperidin-4-yl]methyl}-N-(2-methoxyethyl)-4-methyl-2H-indazole-5-carboxamide] | < 7.30 |
